Laboratory results reported in ChEMBL document CHEMBL1201861, “Genomics of Drug Sensitity in Cancer screening data, Wellcome Trust Sanger Institute”.

Experiments:
Assay in all cases: cells
LS-411N = type: functional, cell-based, Homo sapiens; conditions: Homo sapiens, LS-411N
NCI-H2122 = type: functional, cell-based, Homo sapiens; conditions: Homo sapiens, NCI-H2122;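 further: growth inhibition of the cells, read out with a cell viability assay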
Description: SANGER: Inhibition of human NCI-H2122 cell growth in a cell viability assay.

MKN-28 = type: functional, cell-based, Homo sapiens; conditions: Homo sapiens, MKN-28;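 further: cell viability assay read-out, IC50 reflects suppression of growth of human MKN-28 cells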
NCI-H1651 = type: functional, cell-based, Homo sapiens; conditions: Homo sapiens, NCI-H1651;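 further: Read-out is a cell viability assay, with IC50 expressing inhibition of NCI-H1651 cell growth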
Description: SANGER: Inhibition of human NCI-H1651 cell growth in a cell viability assay.

LAMA-84 = type: functional, cell-based; conditions: Homo sapiens;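 further: growth inhibition of LAMA-84 cells, read out with a cell viability assay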
Description: SANGER: Inhibition of human LAMA-84 cell growth in a cell viability assay.

KP-N-YS = type: functional, cell-based; conditions: Homo sapiens;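 further: cell viability assay measuring inhibition of cell line growth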
Description: SANGER: Inhibition of human KP-N-YS cell growth in a cell viability assay.

647-V = type: functional, cell-based, Homo sapiens; conditions: Homo sapiens, 647-V;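 further: growth inhibition of 647-V cells, read out with a cell viability assay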
Description: SANGER: Inhibition of human 647-V cell growth in a cell viability assay.

SNU-449 = type: functional, cell-based, Homo sapiens; conditions: Homo sapiens, SNU-449
Description: SANGER: Inhibition of human SNU-449 cell growth in a cell viability assay.

DJM-1 = type: functional, cell-based, Homo sapiens; conditions: Homo sapiens, DJM-1;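 further: growth inhibition of human DJM-1 cells, read out by a cell viability assay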
Description: SANGER: Inhibition of human DJM-1 cell growth in a cell viability assay.

MZ1-PC = type: functional, cell-based, Homo sapiens; conditions: Homo sapiens, MZ1-PC;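 further: cell viability assay measuring growth inhibition of human MZ1-PC cells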
Description: SANGER: Inhibition of human MZ1-PC cell growth in a cell viability assay.

HOS = type: functional, cell-based, Homo sapiens; conditions: Homo sapiens, HOS;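 further: growth inhibition of human HOS cells, read out with a cell viability assay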
Description: SANGER: Inhibition of human HOS cell growth in a cell viability assay.

DMS-273 = type: functional, cell-based, Homo sapiens; conditions: Homo sapiens, DMS-273
Description: SANGER: Inhibition of human DMS-273 cell growth in a cell viability assay.

SF-268 = type: functional, cell-based, Homo sapiens; conditions: Homo sapiens, SF-268;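 further: growth inhibition of SF-268 cells determined with a cell viability assay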
Description: SANGER: Inhibition of human SF268 cell growth in a cell viability assay.

Hs-578T = type: functional, cell-based, Homo sapiens; conditions: Homo sapiens, Hs-578T
Description: SANGER: Inhibition of human Hs-578-T cell growth in a cell viability assay.

A2058 = type: functional, cell-based; conditions: Homo sapiens;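 further: reduction of A2058 cell growth, read out with a viability assay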
Description: SANGER: Inhibition of human A2058 cell growth in a cell viability assay.

MEG-01 = type: functional, cell-based; conditions: Homo sapiens;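 further: growth inhibition of MEG-01 cells, read out by a cell viability assay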
Description: SANGER: Inhibition of human MEG-01 cell growth in a cell viability assay.

A-427 = type: functional, cell-based, Homo sapiens; conditions: Homo sapiens, A-427;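 further: growth inhibition of human A-427 cells, read out by a cell viability assay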
Description: SANGER: Inhibition of human A427 cell growth in a cell viability assay.

CHP-212 = type: functional, cell-based, Homo sapiens; conditions: Homo sapiens, CHP-212
Description: SANGER: Inhibition of human CHP-212 cell growth in a cell viability assay.

MKN-7 = type: functional, cell-based, Homo sapiens; conditions: Homo sapiens, MKN-7;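 further: growth inhibition of MKN-7 cells, read out with a cell viability assay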
Description: SANGER: Inhibition of human MKN7 cell growth in a cell viability assay.

NCI-H1355 = type: functional, cell-based, Homo sapiens; conditions: Homo sapiens, NCI-H1355;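 further: growth inhibition of human NCI-H1355 cells, read out by a cell viability assay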
Description: SANGER: Inhibition of human NCI-H1355 cell growth in a cell viability assay.

BFTC-905 = type: functional, cell-based, Homo sapiens; conditions: Homo sapiens, BFTC-905
Description: SANGER: Inhibition of human BFTC-905 cell growth in a cell viability assay.

SK-LMS-1 = type: functional, cell-based, Homo sapiens; conditions: Homo sapiens, SK-LMS-1;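 further: growth inhibition of human SK-LMS-1 cells, read out with a cell viability assay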
Description: SANGER: Inhibition of human SK-LMS-1 cell growth in a cell viability assay.

HEL = type: functional, cell-based, Homo sapiens; conditions: Homo sapiens, HEL;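 further: growth inhibition of HEL cells, read out with a cell viability assay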
Description: SANGER: Inhibition of human HEL cell growth in a cell viability assay.

EC-GI-10 = type: functional, cell-based, Homo sapiens; conditions: Homo sapiens, EC-GI-10
Description: SANGER: Inhibition of human EC-GI-10 cell growth in a cell viability assay.

Capan-2 = type: functional, cell-based, Homo sapiens; conditions: Homo sapiens, Capan-2;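 further: Capan-2 cell growth inhibition, read out with a viability assay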
Description: SANGER: Inhibition of human Capan-2 cell growth in a cell viability assay.

HCC70 = type: functional, cell-based, Homo sapiens; conditions: Homo sapiens, HCC70;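 further: cell viability assay measuring how strongly the compound suppresses proliferation of HCC70 cells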
Description: SANGER: Inhibition of human HCC70 cell growth in a cell viability assay.

SK-MEL-30 = type: functional, cell-based; conditions: Homo sapiens;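 further: growth inhibition of SK-MEL-30 cells, determined with a cell viability assay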
Description: SANGER: Inhibition of human SK-MEL-30 cell growth in a cell viability assay.

NCI-H1793 = type: functional, cell-based, Homo sapiens; conditions: Homo sapiens, NCI-H1793;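 further: cell growth inhibition, read out by a cell viability assay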
Description: SANGER: Inhibition of human NCI-H1793 cell growth in a cell viability assay.

Panc1005 = type: functional, cell-based, Homo sapiens; conditions: Homo sapiens, Panc1005;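 further: growth inhibition of human PANC-10-05 cells, measured by a cell viability assay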
Description: SANGER: Inhibition of human PANC-10-05 cell growth in a cell viability assay.

BB65-RCC = type: functional, cell-based, Homo sapiens; conditions: Homo sapiens, BB65-RCC;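 further: growth inhibition of the cell line, measured with a cell viability assay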
Description: SANGER: Inhibition of human BB65-RCC cell growth in a cell viability assay.

OMC-1 = type: functional, cell-based, Homo sapiens; conditions: Homo sapiens, OMC-1;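 further: growth inhibition of the OMC-1 cell line, measured by a cell viability assay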
Description: SANGER: Inhibition of human OMC-1 cell growth in a cell viability assay.

YAPC = type: functional, cell-based, Homo sapiens; conditions: Homo sapiens, YAPC;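 further: growth inhibition of YAPC cells, measured with a cell viability assay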
Description: SANGER: Inhibition of human YAPC cell growth in a cell viability assay.

VM-CUB-1 = type: functional, cell-based; conditions: Homo sapiens;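 further: cell viability assay measuring growth inhibition of the human VM-CUB-1 cell line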
Description: SANGER: Inhibition of human VM-CUB-1 cell growth in a cell viability assay.

SK-MES-1 = type: functional, cell-based, Homo sapiens; conditions: Homo sapiens, SK-MES-1;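 further: growth inhibition of human SK-MES-1 cells, read out with a cell viability assay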
Description: SANGER: Inhibition of human SK-MES-1 cell growth in a cell viability assay.

UACC-257 = type: functional, cell-based, Homo sapiens; conditions: Homo sapiens, UACC-257
Description: SANGER: Inhibition of human UACC-257 cell growth in a cell viability assay.

KYSE-180 = type: functional, cell-based, Homo sapiens; conditions: Homo sapiens, KYSE-180;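 further: growth inhibition of KYSE-180 cells, read out with a cell viability assay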
Description: SANGER: Inhibition of human KYSE-180 cell growth in a cell viability assay.

RCC10RGB = type: functional, cell-based, Homo sapiens; conditions: Homo sapiens, RCC10RGB;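 further: growth inhibition of human RCC10RGB cells, read out by a cell viability assay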
Description: SANGER: Inhibition of human RCC10RGB cell growth in a cell viability assay.

HN = type: functional, cell-based, Homo sapiens; conditions: Homo sapiens, HN
Description: SANGER: Inhibition of human HN cell growth in a cell viability assay.

D-542MG = type: functional, cell-based, Homo sapiens; conditions: Homo sapiens, D-542MG
Description: SANGER: Inhibition of human D-542MG cell growth in a cell viability assay.

P12-Ichikawa = type: functional, cell-based; conditions: Homo sapiens
ES6 = type: functional, cell-based, Homo sapiens; conditions: Homo sapiens, ES6;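 further: growth inhibition of human ES6 cells, read out with a cell viability assay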
Description: SANGER: Inhibition of human ES6 cell growth in a cell viability assay.

SW1088 = type: functional, cell-based, Homo sapiens; conditions: Homo sapiens, SW1088;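 further: growth inhibition of human SW1088 cells, read out by a cell viability assay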
Description: SANGER: Inhibition of human SW1088 cell growth in a cell viability assay.

HCC1937 = type: functional, cell-based, Homo sapiens; conditions: Homo sapiens, HCC1937;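 further: growth inhibition measured with a cell viability read-out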
Description: SANGER: Inhibition of human HCC1937 cell growth in a cell viability assay.

MeWo = type: functional, cell-based, Homo sapiens; conditions: Homo sapiens, MeWo;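 further: growth inhibition of MeWo cells, determined by a cell viability readout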
Description: SANGER: Inhibition of human Mewo cell growth in a cell viability assay.

NCI-H1299 = type: functional, cell-based, Homo sapiens; conditions: Homo sapiens, NCI-H1299;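 further: growth inhibition of human NCI-H1299 cells, read out by a cell viability assay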
Description: SANGER: Inhibition of human NCI-H1299 cell growth in a cell viability assay.

COR-L105 = type: functional, cell-based, Homo sapiens; conditions: Homo sapiens, COR-L105;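 further: cell growth inhibition determined with a viability assay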
Description: SANGER: Inhibition of human COR-L105 cell growth in a cell viability assay.

CCRF-CEM = type: functional, cell-based; conditions: Homo sapiens;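 further: inhibition of CCRF-CEM cell growth, measured by a cell viability assay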
Description: SANGER: Inhibition of human CCRF-CEM cell growth in a cell viability assay.

HMV-2 cell line = type: functional, cell-based, Homo sapiens; conditions: Homo sapiens, HMV-2;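 further: growth inhibition of HMV-II cells, read out with a cell viability assay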
Description: SANGER: Inhibition of human HMV-II cell growth in a cell viability assay.

MDA-MB-157 = type: functional, cell-based, Homo sapiens; conditions: Homo sapiens, MDA-MB-157
Description: SANGER: Inhibition of human MDA-MB-157 cell growth in a cell viability assay.

MSTO-211H = type: functional, cell-based, Homo sapiens; conditions: Homo sapiens, MSTO-211H
Description: SANGER: Inhibition of human MSTO-211H cell growth in a cell viability assay.

COC(=O)CNC(=O)C(=O)OC
IC50 (LS-411N): > 4000 µM | IC50 (NCI-H2122): 74.4 µM | IC50 (MKN-28): 1120 µM | IC50 (NCI-H1651): 1360 µM | IC50 (LAMA-84): 2110 µM | IC50 (KP-N-YS): 1680 µM | IC50 (647-V): 93.5 µM | IC50 (SNU-449): 92.5 µM | IC50 (DJM-1): 215 µM | IC50 (MZ1-PC): 46 µM | IC50 (HOS): 636 µM | IC50 (DMS-273): 16 µM | IC50 (SF-268): 414 µM | IC50 (Hs-578T): 3120 µM | IC50 (A2058): 166 µM | IC50 (MEG-01): 484 µM | IC50 (A-427): 642 µM | IC50 (CHP-212): 181 µM | IC50 (MKN-7): > 4000 µM | IC50 (NCI-H1355): 274 µM | IC50 (BFTC-905): 580 µM | IC50 (SK-LMS-1): 120 µM | IC50 (HEL): 197 µM | IC50 (EC-GI-10): > 4000 µM | IC50 (Capan-2): 338 µM | IC50 (HCC70): 306 µM | IC50 (SK-MEL-30): 626 µM | IC50 (NCI-H1793): 2950 µM | IC50 (Panc1005): 264 µM | IC50 (BB65-RCC): 2380 µM | IC50 (OMC-1): 249 µM | IC50 (YAPC): > 4000 µM | IC50 (VM-CUB-1): 151 µM | IC50 (SK-MES-1): 221 µM | IC50 (UACC-257): 1090 µM | IC50 (KYSE-180): > 4000 µM | IC50 (RCC10RGB): 1040 µM | IC50 (HN): 1030 µM | IC50 (D-542MG): 560 µM | IC50 (P12-Ichikawa): 62 µM | IC50 (ES6): 3540 µM | IC50 (SW1088): 2720 µM | IC50 (HCC1937): 893 µM | IC50 (MeWo): 230 µM | IC50 (NCI-H1299): 2150 µM | IC50 (COR-L105): 26.4 µM | IC50 (CCRF-CEM): 37.8 µM | IC50 (HMV-2 cell line): > 4000 µM | IC50 (MDA-MB-157): 566 µM | IC50 (MSTO-211H): > 4000 µM

CN(C)C/C=C/C(=O)Nc1cc2c(Nc3ccc(F)c(Cl)c3)ncnc2cc1O[C@H]1CCOC1 [AFATINIB]
IC50 (LS-411N): > 0.5 µM | IC50 (NCI-H2122): > 0.5 µM | IC50 (MKN-28): > 0.5 µM | IC50 (NCI-H1651): > 0.5 µM | IC50 (LAMA-84): > 0.5 µM | IC50 (KP-N-YS): > 0.5 µM | IC50 (647-V): > 0.5 µM | IC50 (SNU-449): > 0.5 µM | IC50 (DJM-1): > 0.5 µM | IC50 (MZ1-PC): > 0.5 µM | IC50 (HOS): > 0.5 µM | IC50 (DMS-273): > 0.5 µM | IC50 (SF-268): > 0.5 µM | IC50 (Hs-578T): > 0.5 µM | IC50 (A2058): > 0.5 µM | IC50 (MEG-01): > 0.5 µM | IC50 (A-427): > 0.5 µM | IC50 (CHP-212): > 0.5 µM | IC50 (MKN-7): > 0.5 µM | IC50 (NCI-H1355): > 0.5 µM | IC50 (BFTC-905): > 0.5 µM | IC50 (SK-LMS-1): > 0.5 µM | IC50 (HEL): > 0.5 µM | IC50 (EC-GI-10): 0.0591 µM | IC50 (Capan-2): > 0.5 µM | IC50 (HCC70): > 0.5 µM | IC50 (SK-MEL-30): > 0.5 µM | IC50 (NCI-H1793): > 0.5 µM | IC50 (Panc1005): > 0.5 µM | IC50 (BB65-RCC): 0.346 µM | IC50 (OMC-1): > 0.5 µM | IC50 (YAPC): > 0.5 µM | IC50 (VM-CUB-1): > 0.5 µM | IC50 (SK-MES-1): > 0.5 µM | IC50 (UACC-257): > 0.5 µM | IC50 (KYSE-180): 0.391 µM | IC50 (RCC10RGB): > 0.5 µM | IC50 (HN): 0.131 µM | IC50 (D-542MG): > 0.5 µM | IC50 (P12-Ichikawa): > 0.5 µM | IC50 (ES6): > 0.5 µM | IC50 (SW1088): > 0.5 µM | IC50 (HCC1937): > 0.5 µM | IC50 (MeWo): > 0.5 µM | IC50 (NCI-H1299): > 0.5 µM | IC50 (COR-L105): 0.211 µM | IC50 (CCRF-CEM): > 0.5 µM | IC50 (HMV-2 cell line): > 0.5 µM | IC50 (MDA-MB-157): > 0.5 µM | IC50 (MSTO-211H): > 0.5 µM
